Patent publication US20200291018A1, “TAM KINASE INHIBITORS” (SYROS PHARMACEUTICALS, INC., priority 2017, published 2020)

Assays:
FLT3 = biological target: T1, FLT3 (Homo sapiens, UniProt P36888); assay: TR-FRET kinase activity assay, FLT3; format: biochemical; conditions: ATP at Km, 60 minutes
T1 sequence (P36888 27-993): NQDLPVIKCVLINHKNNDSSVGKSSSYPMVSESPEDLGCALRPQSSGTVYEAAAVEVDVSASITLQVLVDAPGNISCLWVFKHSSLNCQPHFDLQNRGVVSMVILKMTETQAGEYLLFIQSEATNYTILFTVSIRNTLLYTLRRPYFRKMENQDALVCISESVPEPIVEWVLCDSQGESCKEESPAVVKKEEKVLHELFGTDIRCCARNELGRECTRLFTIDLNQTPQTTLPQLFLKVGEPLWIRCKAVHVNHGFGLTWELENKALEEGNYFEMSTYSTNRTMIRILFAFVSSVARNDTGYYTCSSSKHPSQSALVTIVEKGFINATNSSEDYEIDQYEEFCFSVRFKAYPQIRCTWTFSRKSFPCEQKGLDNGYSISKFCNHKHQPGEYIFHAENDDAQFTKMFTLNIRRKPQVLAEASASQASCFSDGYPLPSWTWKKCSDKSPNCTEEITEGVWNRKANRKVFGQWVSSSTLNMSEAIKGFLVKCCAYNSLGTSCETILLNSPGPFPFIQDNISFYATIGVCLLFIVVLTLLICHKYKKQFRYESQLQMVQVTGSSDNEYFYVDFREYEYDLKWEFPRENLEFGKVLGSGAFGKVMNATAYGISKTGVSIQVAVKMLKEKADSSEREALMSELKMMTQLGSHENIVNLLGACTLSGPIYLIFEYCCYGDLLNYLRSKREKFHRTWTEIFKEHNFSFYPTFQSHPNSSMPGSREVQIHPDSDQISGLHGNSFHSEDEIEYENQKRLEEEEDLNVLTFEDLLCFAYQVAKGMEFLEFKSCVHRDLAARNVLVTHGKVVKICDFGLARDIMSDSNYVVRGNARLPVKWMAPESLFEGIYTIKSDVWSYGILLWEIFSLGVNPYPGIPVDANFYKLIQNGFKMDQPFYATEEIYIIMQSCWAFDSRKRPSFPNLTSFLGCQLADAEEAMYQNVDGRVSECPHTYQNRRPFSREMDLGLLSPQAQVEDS
Method in brief: (§1)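 Buffer 50 mM HEPES pH 7.5/10 mM MgCl2/1 mM EGTA/0.01% Brij 35/1 mM DTT, RT. Km ATP per kinase, labeled peptide, 60 min; 12.5 mM EDTA stop; Eu-Ab 30 min dark; TR-FRET → IC50.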

MERTK = biological target: T2, MERTK (Homo sapiens, UniProt Q12866); assay: TR-FRET kinase activity assay, MERTK; format: biochemical; conditions: for IC50: TR-FRET activity assay, ATP at Km, 60 minutes, read-out: Mer IC50; for Mer/Flt3 ratio (FLT3 IC50/Mer IC50): ratio calculated as FLT3 IC50/Mer IC50
T2 sequence (Q12866 21-999): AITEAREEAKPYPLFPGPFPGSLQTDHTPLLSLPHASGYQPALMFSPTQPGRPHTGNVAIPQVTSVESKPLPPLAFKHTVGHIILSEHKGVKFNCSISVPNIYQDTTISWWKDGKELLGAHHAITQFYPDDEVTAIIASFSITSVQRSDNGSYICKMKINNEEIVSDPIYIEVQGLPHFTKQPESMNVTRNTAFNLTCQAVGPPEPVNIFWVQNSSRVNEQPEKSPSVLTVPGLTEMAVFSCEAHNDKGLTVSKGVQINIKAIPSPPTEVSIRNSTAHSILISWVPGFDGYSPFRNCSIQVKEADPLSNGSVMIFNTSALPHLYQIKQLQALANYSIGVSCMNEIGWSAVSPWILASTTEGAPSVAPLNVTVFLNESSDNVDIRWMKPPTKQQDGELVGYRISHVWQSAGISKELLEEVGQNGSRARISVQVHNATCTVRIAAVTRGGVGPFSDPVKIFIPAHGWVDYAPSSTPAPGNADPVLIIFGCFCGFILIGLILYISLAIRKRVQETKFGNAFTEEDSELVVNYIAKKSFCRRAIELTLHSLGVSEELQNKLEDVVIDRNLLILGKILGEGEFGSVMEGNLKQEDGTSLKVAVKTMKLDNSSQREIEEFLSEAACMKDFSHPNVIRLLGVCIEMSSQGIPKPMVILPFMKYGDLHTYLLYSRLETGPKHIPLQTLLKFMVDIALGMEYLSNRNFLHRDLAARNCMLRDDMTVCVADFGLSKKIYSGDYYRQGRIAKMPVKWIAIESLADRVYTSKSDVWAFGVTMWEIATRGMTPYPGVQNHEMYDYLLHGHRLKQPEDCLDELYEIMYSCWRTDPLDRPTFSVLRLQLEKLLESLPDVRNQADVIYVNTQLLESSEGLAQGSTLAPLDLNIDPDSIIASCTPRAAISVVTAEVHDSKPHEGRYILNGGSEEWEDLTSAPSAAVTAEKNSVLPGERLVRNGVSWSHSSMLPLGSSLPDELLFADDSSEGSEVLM
Method in brief: as §1

SMILES	IC50 (FLT3)	IC50 (MERTK)	Mer/Flt3 ratio (FLT3 IC50/Mer IC50) (MERTK)
C[C@@H](CC(F)(F)F)Nc1ncc2c(OC3CCN(S(C)(=O)=O)CC3)ncc([C@H]3CC[C@H](O)CC3)c2n1 [Compound 389]	1000 to 10000 nM	≤ 100 nM	+++ (a ratio of >100)
COCCN1C(C)(C)CC(Oc2ncc([C@H]3CC[C@H](O)CC3)c3nc(N[C@@H]4CCOC4)ncc23)CC1(C)C [Compound 390]	1000 to 10000 nM	≤ 100 nM	++ (a ratio of between 10 and 100)
CCN1C(C)(C)CC(Oc2ncc([C@H]3CC[C@H](O)CC3)c3nc(N[C@@H](C)CC(F)(F)F)ncc23)CC1(C)C [Compound 391]	100 to 1000 nM	≤ 100 nM	+++ (a ratio of >100)
O[C@H]1CC[C@H](c2cnc(OC3CCOCC3)c3cnc(Nc4ccc(-c5nn[nH]n5)cc4)nc32)CC1 [Compound 392]	100 to 1000 nM	≤ 100 nM	+++ (a ratio of >100)
COC[C@H](C)Nc1ncc2c(O[C@H]3C[C@@H](C(=O)N4CCN(C)CC4)C3)ncc([C@H]3CC[C@H](O)CC3)c2n1 [Compound 393]	1000 to 10000 nM	≤ 100 nM	+++ (a ratio of >100)
C[C@@H](Nc1ncc2c(OC3CCOCC3)ncc([C@H]3CC[C@H](O)CC3)c2n1)C(F)F [Compound 394]	1000 to 10000 nM	≤ 100 nM	+++ (a ratio of >100)
COC[C@H](C)Nc1ncc2c(OC3CCOCC3)ncc(-c3ccc(F)cc3)c2n1 [Compound 395]	1000 to 10000 nM	100 to 1000 nM	++ (a ratio of between 10 and 100)
COC[C@H](C)Nc1ncc2c(OC3CCOCC3)ncc(-c3ccc(C#N)cc3)c2n1 [Compound 396]	1000 to 10000 nM	≤ 100 nM	+++ (a ratio of >100)
O=C(O)c1ccc(Nc2ncc3c(OC4CCOCC4)ncc([C@H]4CC[C@H](O)CC4)c3n2)cc1 [Compound 397]	≤ 100 nM	≤ 100 nM	++ (a ratio of between 10 and 100)
CNC(=O)c1ccc(Nc2ncc3c(OC4CCOCC4)ncc([C@H]4CC[C@H](O)CC4)c3n2)cc1 [Compound 398]	100 to 1000 nM	≤ 100 nM	+ (a ratio of >2.0 and <10)
NC(=O)c1ccc(Nc2ncc3c(OC4CCOCC4)ncc([C@H]4CC[C@H](O)CC4)c3n2)cc1 [Compound 399]	≤ 100 nM	≤ 100 nM	NS (a ratio of ≤2.0)
COC[C@H](C)Nc1ncc2c(OC3CCOCC3)ncc(-c3ccc(S(C)(=O)=O)cc3)c2n1 [Compound 400]	1000 to 10000 nM	100 to 1000 nM	++ (a ratio of between 10 and 100)
C[C@H](CF)Nc1ncc2c(OC3CCOCC3)ncc([C@H]3CC[C@H](O)CC3)c2n1 [Compound 401]	1000 to 10000 nM	≤ 100 nM	+++ (a ratio of >100)
C[C@@H](CC(F)(F)F)Nc1ncc2c(O[C@H]3C[C@@H](CN4CCOCC4)C3)ncc([C@H]3CC[C@H](O)CC3)c2n1 [Compound 402]	100 to 1000 nM	≤ 100 nM	+++ (a ratio of >100)
COC[C@H](C)Nc1ncc2c(C(F)(F)F)ncc([C@H]3CC[C@H](O)CC3)c2n1 [Compound 403]	1000 to 10000 nM	100 to 1000 nM	++ (a ratio of between 10 and 100)
CC1(Nc2ncc3c(OC4CCOCC4)ncc(-c4cccc(NS(C)(=O)=O)c4)c3n2)CC1 [Compound 404]	1000 to 10000 nM	≤ 100 nM	++ (a ratio of between 10 and 100)
CC1(Nc2ncc3c(OC4CCOCC4)ncc(-c4cccc(S(=O)(=O)N5CCC5)c4)c3n2)CC1 [Compound 405]	1000 to 10000 nM	≤ 100 nM	+++ (a ratio of >100)
C[C@H](CC(F)(F)F)Nc1ncc2c(O[C@H]3C[C@@H](O)C3)ncc([C@H]3CC[C@H](O)CC3)c2n1 [Compound 406]	1000 to 10000 nM	≤ 100 nM	+++ (a ratio of >100)
C[C@@H](COC(F)F)Nc1ncc2c(O[C@H]3C[C@@H](O)C3)ncc([C@H]3CC[C@H](O)CC3)c2n1 [Compound 407]	1000 to 10000 nM	≤ 100 nM	+++ (a ratio of >100)
C[C@@H](CC(F)(F)F)Nc1ncc2c(O[C@H]3C[C@@H](N4CCOCC4)C3)ncc([C@H]3CC[C@H](O)CC3)c2n1 [Compound 408]	100 to 1000 nM	≤ 100 nM	+++ (a ratio of >100)
C[C@@H](CC(F)(F)F)Nc1ncc2c(O[C@H]3C[C@@H](O)C3)ncc(-c3ccc(C4(C#N)CC4)cc3)c2n1 [Compound 409]	100 to 1000 nM	≤ 100 nM	++ (a ratio of between 10 and 100)
O=C(O)[C@H]1CC[C@H](Nc2ncc3c(OC4CCOCC4)ncc([C@H]4CC[C@H](O)CC4)c3n2)CC1 [Compound 410]	1000 to 10000 nM	≤ 100 nM	+++ (a ratio of >100)
C[C@H](Nc1ncc2c(O[C@H]3C[C@@H](O)C3)ncc([C@H]3CC[C@H](O)CC3)c2n1)C(F)F [Compound 411]	1000 to 10000 nM	≤ 100 nM	+++ (a ratio of >100)
C[C@@H](CC(F)(F)F)Nc1ncc2c(O[C@@H]3C[C@H]4CC[C@@H](C3)N4C[C@H]3CCCO3)ncc([C@H]3CC[C@H](O)CC3)c2n1 [Compound 412]	≤ 100 nM	≤ 100 nM	+++ (a ratio of >100)
C[C@@H](CC(F)(F)F)Nc1ncc2c(O[C@@H]3C[C@H]4CC[C@@H](C3)N4[C@H]3CCOC3)ncc([C@H]3CC[C@H](O)CC3)c2n1 [Compound 413]	≤ 100 nM	≤ 100 nM	+++ (a ratio of >100)
